Results on 2 compounds are retold here after patent US20250268801A1, “DRY CREAMS AND TOPICAL DELIVERY SYSTEMS” (UEA Enterprises Limited, priority 2021, published 2025).

A short description of data set [1]: Drug solubility in loading solvent. In kind it is physicochemical. The note with it: sunflower oil, oil or lipid. The protocol:
The maximum amount of metoprolol which can dissolve in the volume of ethanol in a 10% solution was precisely weighed out and dissolved in the ethanol—DCM in the HPMCAS-PVP polymer solution before it was electrospun. When coumarin (hydrophobic fluorescent dye) was added, the voltage was increased to 19.1 kv. […] Ketoconazole was dissolved in sunflower oil.

The conditions of data set [2]: cited from earlier work.

Converted amounts (≈) assume the structure as drawn.

In data set [1], `CC(=O)N1CCN(c2ccc(OCC3COC(Cn4ccnc4)(c4ccc(Cl)cc4Cl)O3)cc2)CC1` (centres unmarked) [Ketoconazole] came in with a solubility of about 5800 µg/mL (≈ 10.9 mM).

Take `COCCc1ccc(OCC(O)CNC(C)C)cc1` (centres unmarked) [Metoprolol]: the solubility in ethanol in data set [2] was 31000 µg/mL (≈ 116 mM).

For orientation: solubility means the concentration that dissolves in the medium under given conditions. A high value points to much dissolved substance.
